{"source": "paper PMC6009943", "about": "“One-pot three-component synthesis of novel spirooxindoles with potential cytotoxic activity against triple-negative breast cancer MDA-MB-231 cells” (Journal of Enzyme Inhibition and Medicinal Chemistry, 2017)", "key": {"[1]": {"test_system": "MDA-MB-231 cells", "assay": "In vitro anti-proliferative activity assay (MTT)", "type": "cell-based", "settings": "Homo sapiens, 48 h incubation", "protocol": "Cells lines were maintained as monolayers in Dulbecco’s Modified Eagle’s Medium (DMEM) supplemented with 10% FBS, 2 mM L-glutamine, 100 U/ml penicillin and 100 µg/ml streptomycin sulfate. Cells were sub-cultured with trypsine/EDTA solution, counted with haemocytometer and plated onto 96-well plates (5000 cells/well) and left overnight to form a semi-confluent monolayer. […] DMSO (100 µl/well) was added to dissolve the formazan crystals with shaking for 10 min after which the absorbance was read at 590 nm against no cell blanks on a FLuo Star Optima microplate reader (BMG Technologies, Germany). Cell proliferation was calculated comparing the OD values of the DMSO control wells and those of the samples represented as % proliferation to the control.\nThe in vitro anti-proliferative activity of the newly synthesized spirooxindoles 6a–p was examined against TNBC MDA-MB-231 cells. This assay was performed utilizing the 3–(4,5-dimethylthiazol-2-yl)-2,5-diphenyltetrazolium bromide (MTT) colorimetric assay as described by Mosmann[18]. Adriamycin was included in this assay as a reference drug."}, "[2]": {"test_system": "WI-38 cells", "assay": "In vitro cytotoxic activity, WI-38 cells (MTT)", "type": "cell-based, human", "settings": "Homo sapiens, WI-38, read-out: IC50 (µM) WI-38", "protocol": "WI-38 cells ([…]), were obtained from American Type Culture Collection. The cells were propagated in DMEM supplemented with 10% heat-inactivated FBS (Hyclone), 10 μg/ml of insulin (Sigma), and 1% penicillin-streptomycin. All of the other chemicals and reagents were from Sigma, or Invitrogen. Cytotoxicity was determined using MTT assay following a reported procedure."}, "[3]": {"test_system": "caspase-3", "assay": "Active caspase-3 level in MDA-MB-231 cells (ELISA)", "type": "cell-based", "settings": "MDA-MB-231 cells treated with compound at its IC50 concentration", "protocol": "(§1) The levels of the apoptotic markers (Bax, caspase-3) as well as the anti-apoptotic marker (Bcl-2) were assessed using ELISA colorimetric kits per the manufacturer’s protocol and referring to reported instructions[21]^,[22].\nCaspases, a family of cysteineaspartic proteases, are the crucial apoptosis mediators that provide essential links in cell regulatory networks controlling cell death. Caspase-3 is the key executioner caspase which modifies proteins ultimately responsible for apoptosis."}, "[4]": {"test_system": "Bax", "assay": "Bax level in MDA-MB-231 cells (ELISA)", "type": "cell-based", "settings": "MDA-MB-231 cells treated with compound at its IC50 concentration", "protocol": "as §1\n(§2) Bcl-2 family comprises a group of crucial regulatory factors in apoptosis that finely tune the apoptotic switch on/off mechanism. Based on their functional and structural criteria, the members are divided into two major classes; group I proteins that are anti-apoptotic and group II proteins that are apoptotic. Group I anti-apoptotic proteins exert their function by inhibiting group II apoptotic proteins through simply binding to them. Group I proteins bind selectively to the active conformations of group II proteins to prevent them from being inserted into the mitochondria and thus cease the release of pro-apoptotic factors such as cytochrome c, ultimately aborting apoptosis. Thus, the inhibition of group I proteins and/or the activation of group II proteins can successfully induce apoptosis."}, "[5]": {"test_system": "Bcl-2", "assay": "Bcl-2 level in MDA-MB-231 cells (ELISA)", "type": "cell-based", "settings": "MDA-MB-231 cells treated with compound at its IC50 concentration", "protocol": "as §1, §2"}, "[6]": {"test_system": "MDA-MB-231 cells", "assay": "Annexin V-FITC apoptosis assay", "type": "cell-based", "settings": "MDA-MB-231, 24 h", "protocol": "Phosphatidylserine externalization was measured using Annexin V-FITC/PI apoptosis detection kit (BD Biosciences, San Jose, CA) according to the manufacturer's instructions, as reported earlier. MDA-MB-231cells were treated with 6e at defined concentrations for 24 h.\nExternalization of the phospholipid phosphatidylserine at the cell membrane is a one of the well-recognized hallmarks of cells going into apoptosis[17]^,[29]."}, "[7]": {"biological_target": "T1, EGFR (Homo sapiens, UniProt P00533)", "T1 construct": "purchased BPS Biosciences 40321", "T1 sequence (P00533 25-1210)": "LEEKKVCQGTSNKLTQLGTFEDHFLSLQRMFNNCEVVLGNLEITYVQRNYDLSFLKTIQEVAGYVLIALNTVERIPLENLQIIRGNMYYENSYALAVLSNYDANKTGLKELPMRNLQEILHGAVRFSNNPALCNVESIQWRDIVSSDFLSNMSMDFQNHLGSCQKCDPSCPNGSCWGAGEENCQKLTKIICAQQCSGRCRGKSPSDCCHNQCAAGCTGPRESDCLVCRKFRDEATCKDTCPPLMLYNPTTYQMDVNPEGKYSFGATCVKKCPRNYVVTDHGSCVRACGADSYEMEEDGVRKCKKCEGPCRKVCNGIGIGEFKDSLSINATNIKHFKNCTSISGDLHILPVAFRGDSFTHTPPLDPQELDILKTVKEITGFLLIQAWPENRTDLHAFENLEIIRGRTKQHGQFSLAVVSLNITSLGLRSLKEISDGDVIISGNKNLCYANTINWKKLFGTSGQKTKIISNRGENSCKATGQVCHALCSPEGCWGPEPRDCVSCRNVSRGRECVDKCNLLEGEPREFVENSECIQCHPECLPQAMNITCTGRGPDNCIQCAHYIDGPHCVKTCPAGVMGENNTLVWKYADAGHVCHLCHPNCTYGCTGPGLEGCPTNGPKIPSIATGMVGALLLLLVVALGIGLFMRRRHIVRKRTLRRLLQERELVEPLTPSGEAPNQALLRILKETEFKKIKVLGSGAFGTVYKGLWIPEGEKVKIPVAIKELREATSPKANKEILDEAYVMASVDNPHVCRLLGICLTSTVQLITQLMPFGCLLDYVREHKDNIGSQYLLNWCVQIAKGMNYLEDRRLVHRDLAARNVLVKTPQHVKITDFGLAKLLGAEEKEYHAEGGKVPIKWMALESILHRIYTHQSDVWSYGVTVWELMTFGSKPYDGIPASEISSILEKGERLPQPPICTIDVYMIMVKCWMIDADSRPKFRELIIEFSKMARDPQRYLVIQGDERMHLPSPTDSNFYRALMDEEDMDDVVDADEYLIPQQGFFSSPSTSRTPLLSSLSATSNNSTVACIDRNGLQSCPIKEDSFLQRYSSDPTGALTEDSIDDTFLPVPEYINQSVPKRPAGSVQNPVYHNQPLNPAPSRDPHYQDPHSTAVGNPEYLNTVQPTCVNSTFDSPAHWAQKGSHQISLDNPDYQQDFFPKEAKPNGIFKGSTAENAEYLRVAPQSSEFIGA", "assay": "EGFR kinase ELISA assay", "type": "biochemical", "settings": "colorimetric ELISA, mean ± SD of three separate experiments", "protocol": "Percent inhibition was calculated by the comparison of compounds treated to control incubations.\nErlotinib, a clinically used EGFR inhibitor, was taken as the reference drug."}, "[8]": {"test_system": "MDA-MB-231 cells", "assay": "Cell cycle analysis (DNA flow cytometry)", "method": "Then cells were washed twice with ice-cold phosphate buffered saline (PBS). Subsequently, the treated cells were collected by centrifugation, fixed in ice-cold 70% (v/v) ethanol, washed with PBS, re-suspended with 0.1 mg/mL RNase, stained with 40 mg/mL PI, and analyzed by flow cytometry using FACS Calibur (Becton Dickinson, BD, USA). The cell cycle distributions were calculated using CellQuest software (Becton Dickinson)."}, "[9]": {"test_system": "tsFT210 cells", "design": "method as in ref 7 = [7]; 7 Cui C-B , Kakeya H , Osada H. Novel mammalian cell cycle inhibitors, spirotryprostatins A and B, produced by Aspergillus fumigatus , which inhibit mammalian cell cycle at G2/M phase . Tetrahedron 19", "settings": "read-out: IC50, inhibition of cell cycle progression at G2/M phase; cited from earlier work"}, "[10]": {"test_system": "MDA-MB-231 cancer cell line", "settings": "TNBC; read-out: IC50, cytotoxic activity MDA-MB-231; cited from earlier work"}, "[11]": {"test_system": "MCF-7", "design": "method as in PMID 24747063", "settings": "ordinary breast cancer; read-out: IC50, cytotoxic activity MCF-7; cited from earlier work"}, "[12]": {"test_system": "MDA cell lines", "design": "method as in ref 10 = [10]; 10 Jiang X , Sun Y , Yao J , et al Core scaffold‐inspired concise synthesis of chiral spirooxindole‐pyranopyrimidines with broad‐spectrum anticancer potency . Adv Synth Catal 2012; 354 : 917 – 25 .", "settings": "read-out: IC50, cytotoxicity against MDA cell lines; cited from earlier work"}}}
{"smiles": "N#CC1=C(c2ccccc2)Nc2c(c(-c3cccs3)nn2-c2ccccc2)C12C(=O)Nc1ccc(Cl)cc12", "note": "(centres unmarked) [Compound 6e, 5-Chloro-2-oxo-1',6'-diphenyl-3'-(thiophen-2-yl)-1',7'-dihydrospiro[indoline-3,4'-pyrazolo[3,4-b]pyridine]-5'-carbonitrile]", "values": [{"measurement": "IC50", "setting": "[1]", "value": 6.4, "unit": "µM"}, {"measurement": "IC50", "setting": "[2]", "value": 43.2, "unit": "µM"}, {"measurement": "Caspase-3", "setting": "[3]", "value": 0.4058, "unit": "ng/mL"}, {"measurement": "Caspase-3, number of folds of control", "setting": "[3]", "value": "~36.5", "unit": "folds"}, {"measurement": "Bax", "setting": "[4]", "value": 353.7, "unit": "pg/mL"}, {"measurement": "Bax, number of folds of control", "setting": "[4]", "value": 442.1, "unit": "folds"}, {"measurement": "Bcl-2", "setting": "[5]", "value": 0.7449, "unit": "ng/mL"}, {"measurement": "Bcl-2, number of folds of control", "setting": "[5]", "value": 0.276, "unit": "folds"}, {"measurement": "Annexin V-FITC positive apoptotic cells, folds compared to control", "setting": "[6]", "value": "about 32.8 folds"}, {"measurement": "Percent of annexin V-FITC positive apoptotic cells (UR + LR)", "setting": "[6]; control 1.34%", "value": 44, "unit": "%"}, {"measurement": "IC50", "setting": "[7]", "value": "0.15 ± 0.02", "unit": "µM"}, {"measurement": "Cells in G2-M phase", "setting": "[8]", "value": 19.1, "unit": "%"}, {"measurement": "Change in the S phase", "setting": "[8]", "value": "no significant change"}]}
{"smiles": "CC(C)=CC1N2C(=O)C3CCCN3C(=O)C2=CC12C(=O)Nc1ccccc12", "note": "(centres unmarked) [Spirotryprostatins B]", "values": [{"measurement": "IC50", "setting": "[9]", "value": 14, "unit": "µM"}]}
{"smiles": "CC(C)(C)C1=NN(c2ccccc2)C2(C(=O)Nc3c(Cl)cccc32)C1c1ccccc1", "note": "(centres unmarked) [compound (iii)]", "values": [{"measurement": "IC50", "setting": "[10]", "value": 6.4, "unit": "µM"}, {"measurement": "IC50", "setting": "[11]", "value": 8.6, "unit": "µM"}]}
{"smiles": "CC(=O)n1c(C)nc2c(c1=O)[C@@]1(C(=O)Nc3c(F)cccc31)c1c(c3cc(F)ccc3oc1=O)O2", "note": "[derivative (ii)]", "values": [{"measurement": "IC50", "setting": "[12]", "value": 6.9, "unit": "µM"}]}
